Data: patent US20250049776A1, “AUTOPHAGY INDUCING COMPOUNDS AND USES THEREOF, IN PARTICULAR FOR A SYSTEMIC TREATMENT OF DISEASES AND CONDITIONS” (Samsara Therapeutics Inc., priority 2021, published 2025)
Like-named read-outs stand apart in the source and are kept apart here.

Test system: Human osteosarcoma U20S cells
Assay: Assay to measure lysosome and autolysosome formation (acidic vesicle formation, LysoView/LysoTracker staining)
Format: cell-based
Details: for activation at 0.8 µM: Homo sapiens; for activation at 0.8 µM / Activity (percentage increase in acidic vesicle formation), Table 2b More preferred compounds: U2OS cells, concentration of 0.8 μM; for increase in acidic vesicle formation: relative to DMSO-treated control (10 μM)
Outline: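 U2OS cells treated with compounds in DMSO for 24 h, then stained 45 min at 37 °C with 1× LysoView 633 or 50 nM LysoTracker Deep Red, with Hoechst nuclear counterstain. Live-cell fluorescence imaging at 37 °C; acidic vesicle formation judged against DMSO-treated control.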

[1] = read-out: Activity (percentage increase in acidic vesicle formation over the DMSO-treated control), Table 2
[2] = read-out: Activity (percentage increase in acidic vesicle formation), Table 2a Preferred compounds

Compound	activation at 0.8 µM [1]	other results
O=C(NC1C[C@@H]2C[C@H]1CN2)c1csc(-c2cnn(-c3ccccc3)c2)n1 (stereo partly drawn) [Compound 327, N-[(1S,4S)-2-azabicyclo[2.2.1]heptan-5-yl]-2-(1-phenyl-1H-pyrazol-4-yl)-1,3-thiazole-4-carboxamide]	30 to 50%	
CCCN(C(=O)c1csc(-c2cnn(-c3ccccc3)c2)c1)[C@@H]1CCNC1 [Compound 36, 5-(1-phenyl-1H-pyrazol-4-yl)-N-propyl-N-[(3R)-pyrrolidin-3-yl]thiophene-3-carboxamide]	10 to 30%	
CCCN(C(=O)c1csc(-c2cnn(-c3ccc(OC(F)(F)F)cc3)c2)n1)[C@@H]1CCNC1 [Compound 46, N-propyl-N-[(3R)-pyrrolidin-3-yl]-2-{1-[4-(trifluoromethoxy)phenyl]-1H-pyrazol-4-yl}-1,3-thiazole-4-carboxamide]	30 to 50%	
CCCN(C(=O)c1csc(-c2ccc(-c3ccccc3)s2)n1)C1CCNC1 (centres unmarked) [Compound 122, 2-(5-phenylthiophen-2-yl)-N-propyl-N-(pyrrolidin-3-yl)-1,3-thiazole-4-carboxamide]	> 100%	activation at 0.8 µM [2]: 50 to 100%; Activity (percentage increase in acidic vesicle formation), Table 2b More preferred compounds: ++++ (a percentage increase in acidic vesicle of greater than 100% over the DMSO-treated control)
CCCN(C(=O)c1csc(-c2cnn(-c3cccc(OC)c3)c2)n1)[C@H]1CCNC1 [Compound 51, 2-[1-(3-methoxyphenyl)-1H-pyrazol-4-yl]-N-propyl-N-[(3S)-pyrrolidin-3-yl]-1,3-thiazole-4-carboxamide]	30 to 50%	
CCCN(C(=O)c1csc(-c2cnn(-c3ccccc3C)c2)n1)[C@H]1CCNC1 [Compound 87, 2-[1-(2-methylphenyl)-1H-pyrazol-4-yl]-N-propyl-N-[(3S)-pyrrolidin-3-yl]-1,3-thiazole-4-carboxamide]	10 to 30%	
CCCN(C(=O)c1ccc(-c2cnn(-c3ccccc3)c2)o1)[C@@H]1CCNC1 [Compound 99, 5-(1-phenyl-1H-pyrazol-4-yl)-N-propyl-N-[(3R)-pyrrolidin-3-yl]furan-2-carboxamide]	50 to 100%	activation at 0.8 µM [2]: 50 to 100%
O=C(NC[C@@H]1CCNC1)c1cc(-c2cnn(-c3ccccc3)c2)cs1 [Compound 16, 4-(1-phenyl-1H-pyrazol-4-yl)-N-{[(3R)-pyrrolidin-3-yl]methyl}thiophene-2-carboxamide]	10 to 30%	
CC(C)N(C(=O)c1csc(-c2cnn(-c3cccnc3)c2)n1)C1CCNCC1 [Compound 321, N-(piperidin-4-yl)-N-(propan-2-yl)-2-[1-(pyridin-3-yl)-1H-pyrazol-4-yl]-1,3-thiazole-4-carboxamide]	30 to 50%	increase in acidic vesicle formation (U20S cells): only a slight increase
O=C(c1csc(-c2cnn(-c3ccccc3)c2)n1)N1C[C@H]2C[C@@H]1CN2 [Compound 326, (1R,4R)-2-[2-(1-phenyl-1H-pyrazol-4-yl)-1,3-thiazole-4-carbonyl]-2,5-diazabicyclo[2.2.1]heptane]	50 to 100%	
CCCN(C(=O)c1ccc(-c2cnn(-c3ccccc3)c2)[nH]1)C1CCNC1 (centres unmarked) [Compound 120, 5-(1-phenyl-1H-pyrazol-4-yl)-N-propyl-N-(pyrrolidin-3-yl)-1H-pyrrole-2-carboxamide]	50 to 100%	activation at 0.8 µM [2]: 50 to 100%
CCCN(C(=O)c1csc(-c2cnn(-c3cccc(C(F)(F)F)c3)c2)n1)[C@H]1CCNC1 [Compound 48, N-propyl-N-[(3S)-pyrrolidin-3-yl]-2-{1-[3-(trifluoromethyl)phenyl]-1H-pyrazol-4-yl}-1,3-thiazole-4-carboxamide]	50 to 100%	activation at 0.8 µM [2]: 50 to 100%
CC(C)N(C(=O)c1csc(-c2cnn(-c3ncccn3)c2)n1)C1CCNCC1 [Compound 329, N-(piperidin-4-yl)-N-(propan-2-yl)-2-[1-(pyrimidin-2-yl)-1H-pyrazol-4-yl]-1,3-thiazole-4-carboxamide]		increase in acidic vesicle formation (U20S cells): only a slight increase
CCCN(C(=O)c1csc(-c2cnn(-c3ccc(OC(F)(F)F)cc3)c2)n1)[C@H]1CCNC1 [Compound 45, N-propyl-N-[(3S)-pyrrolidin-3-yl]-2-{1-[4-(trifluoromethoxy)phenyl]-1H-pyrazol-4-yl}-1,3-thiazole-4-carboxamide]	30 to 50%	
CCCN(C(=O)c1ccc(-c2cnn(-c3ccccc3)c2)[nH]1)[C@@H]1CCNC1 [Compound 94, 5-(1-phenyl-1H-pyrazol-4-yl)-N-propyl-N-[(3R)-pyrrolidin-3-yl]-1H-pyrrole-2-carboxamide]	> 100%	activation at 0.8 µM [2]: 50 to 100%; Activity (percentage increase in acidic vesicle formation), Table 2b More preferred compounds: ++++ (a percentage increase in acidic vesicle of greater than 100% over the DMSO-treated control)
CCCN(C(=O)c1csc(-c2cnn(-c3ccccn3)c2)n1)[C@H]1CCNC1 [Compound 43, N-propyl-2-[1-(pyridin-2-yl)-1H-pyrazol-4-yl]-N-[(3S)-pyrrolidin-3-yl]-1,3-thiazole-4-carboxamide]	10 to 30%	
N[C@@H]1CCCN(C(=O)c2csc(-c3cnn(-c4ccccc4)c3)n2)C1 [Compound 143, (3R)-1-[2-(1-phenyl-1H-pyrazol-4-yl)-1,3-thiazole-4-carbonyl]piperidin-3-amine]	10 to 30%	
O=C(c1csc(-c2cnn(-c3ccccc3)c2)n1)N1CCNCC1 [Compound 104, 1-[2-(1-phenyl-1H-pyrazol-4-yl)-1,3-thiazole-4-carbonyl]piperazine]	10 to 30%	
CC(C)N(C(=O)c1csc(-c2cnn(-c3ccncc3)c2)n1)C1CCNCC1 [Compound 322, N-(piperidin-4-yl)-N-(propan-2-yl)-2-[1-(pyridin-4-yl)-1H-pyrazol-4-yl]-1,3-thiazole-4-carboxamide]		acidic vesicle formation relative to a DMSO-treated control (U20S cells, concentration of 10 μM, 24 hours): only a slight increase; increase in acidic vesicle formation (U20S cells): only a slight increase
CCCN(C(=O)c1csc(-c2cnn(-c3cccc(Cl)c3)c2)n1)[C@H]1CCNC1 [Compound 31, 2-[1-(3-chlorophenyl)-1H-pyrazol-4-yl]-N-propyl-N-[(3S)-pyrrolidin-3-yl]-1,3-thiazole-4-carboxamide]	10 to 30%	
CCCN(C(=O)c1csc(-c2cnn(-c3cccc(F)c3)c2)n1)[C@H]1CCNC1 [Compound 52, 2-[1-(3-fluorophenyl)-1H-pyrazol-4-yl]-N-propyl-N-[(3S)-pyrrolidin-3-yl]-1,3-thiazole-4-carboxamide]	10 to 30%	
NC1CN(C(=O)c2csc(-c3cnn(-c4ccccc4)c3)n2)C1 [Compound 124, 1-[2-(1-phenyl-1H-pyrazol-4-yl)-1,3-thiazole-4-carbonyl]azetidin-3-amine]	50 to 100%	activation at 0.8 µM [2]: 50 to 100%
CCCN(C(=O)c1ccc(-c2cnn(-c3ccccc3)c2)o1)[C@H]1CCNC1 [Compound 98, 5-(1-phenyl-1H-pyrazol-4-yl)-N-propyl-N-[(3S)-pyrrolidin-3-yl]furan-2-carboxamide]	50 to 100%	activation at 0.8 µM [2]: 50 to 100%
O=C(NCC1CCNCC1)c1csc(-c2cnn(-c3ccccc3)c2)n1 [Compound 177, 2-(1-phenyl-1H-pyrazol-4-yl)-N-[(piperidin-4-yl)methyl]-1,3-thiazole-4-carboxamide]	10 to 30%	
